From ChEMBL document CHEMBL1201862, “PubChem BioAssay data set” (2004)
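Tested at 5 concentrations; 48 h exposure; 96-well plates; endpoints linearly interpolated, else capped at highest concentration. GI50 = concentration required for 50% inhibition of growth.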 Activity calls are given as the source filed them. No stated cut-off is given here; in the data, active = GI50 up to about 1.1 µM and inactive = higher.

Key:
Experiment in all cases: DTP human tumour cell line panel, 48 h
786-0 = system: 786-0
A498 = system: A498
A549 = system: A549
ACHN = system: ACHN
BT-549 = system: BT-549
CAKI-1 = system: CAKI-1
CCRF-CEM = system: CCRF-CEM
COLO 205 = system: COLO 205
EKVX = system: EKVX
HCC 2998 = system: HCC 2998
HCT-116 = system: HCT-116
HCT-15 = system: HCT-15
HL-60 = system: HL-60
HOP-62 = system: HOP-62
HT-29 = system: HT-29
Hs-578T = system: Hs-578T
IGROV-1 = system: IGROV-1
K562 = system: K562
KM12 = system: KM12
LOX IMVI = system: LOX IMVI
M14 = system: M14
MCF7 = system: MCF7
MDA-MB-231 = system: MDA-MB-231
MDA-MB-435 = system: MDA-MB-435
MDA-N = system: MDA-N
MOLT-4 = system: MOLT-4
Malme-3M = system: Malme-3M
NCI-H226 = system: NCI-H226
NCI-H23 = system: NCI-H23
NCI-H460 = system: NCI-H460
NCI-H522 = system: NCI-H522
NCI/ADR-RES = system: NCI/ADR-RES
OVCAR-3 = system: OVCAR-3
OVCAR-4 = system: OVCAR-4
OVCAR-5 = system: OVCAR-5
OVCAR-8 = system: OVCAR-8
PC-3 = system: PC-3
RPMI-8226 = system: RPMI-8226
SF-268 = system: SF-268
SF-295 = system: SF-295
SF-539 = system: SF-539
SK-MEL-28 = system: SK-MEL-28
SK-MEL-2 = system: SK-MEL-2
SK-MEL-5 = system: SK-MEL-5
SK-OV-3 = system: SK-OV-3
SN12C = system: SN12C
SNB-19 = system: SNB-19
SNB-75 = system: SNB-75
SR = system: SR
SW-620 = system: SW-620
T47D = system: T47D
TK-10 = system: TK-10
U-251 = system: U-251
UACC-257 = system: UACC-257
UACC-62 = system: UACC-62
UO-31 = system: UO-31
DU-145 = system: DU-145
HOP-92 = system: HOP-92
RXF 393 = system: RXF 393

`COc1ccc(C2SCC(=O)N2c2ccc(-n3c(-c4ccccc4)nc4ccccc4c3=O)cc2)cc1OC` (centres undefined) was tested, and the GI50 (786-0) was > 100 µM (inactive), the GI50 (A498) was > 100 µM (inactive) and the GI50 (A549) was > 100 µM (inactive). For the same molecule, the GI50 (ACHN) was > 100 µM (inactive), the GI50 (BT-549) was > 100 µM (inactive) and the GI50 (CAKI-1) was > 100 µM (inactive). The GI50 (CCRF-CEM) was > 100 µM (inactive), the GI50 (COLO 205) was > 100 µM (inactive) and the GI50 (EKVX) was > 100 µM (inactive). For the same molecule, the GI50 (HCC 2998) was > 100 µM (inactive), the GI50 (HCT-116) was > 100 µM (inactive) and the GI50 (HCT-15) was over 100 µM. The GI50 (HL-60) was > 100 µM (inactive), the GI50 (HOP-62) was > 100 µM (inactive) and the GI50 (HT-29) was > 100 µM (inactive). For the same molecule, the GI50 (Hs-578T) was 99.8 µM (inactive), the GI50 (IGROV-1) was > 100 µM (inactive) and the GI50 (K562) was > 100 µM (inactive). For the same molecule, the GI50 (KM12) was > 100 µM (inactive), the GI50 (LOX IMVI) was > 100 µM (inactive) and the GI50 (M14) was > 100 µM (inactive). For the same molecule, the GI50 (MCF7) was > 100 µM (inactive), the GI50 (MDA-MB-231) was > 100 µM (inactive) and the GI50 (MDA-MB-435) was > 100 µM (inactive). For the same molecule, the GI50 (MDA-N) was > 100 µM (inactive), the GI50 (MOLT-4) was 24.5 µM (inactive) and the GI50 (Malme-3M) was > 100 µM (inactive). The GI50 (NCI-H226) was 31.3 µM (inactive), the GI50 (NCI-H23) was > 100 µM (inactive) and the GI50 (NCI-H460) was > 100 µM (inactive). For the same molecule, the GI50 (NCI-H522) was 90.6 µM (inactive), the GI50 (NCI/ADR-RES) was > 100 µM (inactive) and the GI50 (OVCAR-3) was > 100 µM (inactive). The GI50 (OVCAR-4) was > 10 µM (inactive), the GI50 (OVCAR-5) was > 100 µM (inactive) and the GI50 (OVCAR-8) was > 100 µM (inactive). The GI50 (PC-3) was 71.3 µM (inactive), the GI50 (RPMI-8226) was > 100 µM (inactive) and the GI50 (SF-268) was > 100 µM (inactive). The GI50 (SF-295) was > 100 µM (inactive), the GI50 (SF-539) was > 100 µM (inactive) and the GI50 (SK-MEL-28) was > 100 µM (inactive). For the same molecule, the GI50 (SK-MEL-2) was > 100 µM (inactive), the GI50 (SK-MEL-5) was > 100 µM (inactive) and the GI50 (SK-OV-3) was > 100 µM (inactive). For the same molecule, the GI50 (SN12C) was > 100 µM (inactive), the GI50 (SNB-19) was > 100 µM (inactive) and the GI50 (SNB-75) was 3.11 µM (inactive). For the same molecule, the GI50 (SR) was > 100 µM (inactive), the GI50 (SW-620) was > 100 µM (inactive) and the GI50 (T47D) was 90.6 µM (inactive). For the same molecule, the GI50 (TK-10) was > 100 µM (inactive), the GI50 (U-251) was > 100 µM (inactive) and the GI50 (UACC-257) was > 100 µM (inactive). For the same molecule, the GI50 (UACC-62) was 62.1 µM (inactive) and the GI50 (UO-31) was 12.9 µM (inactive).

`N=C(N)N/N=C/c1c(-c2ccc(Cl)cc2)nc2n1CCS2` was tested, and the GI50 (786-0) was 4.31 µM (inactive), the GI50 (A498) was 12.7 µM (inactive) and the GI50 (A549) was 10 µM (inactive). The GI50 (ACHN) was 14.1 µM (inactive), the GI50 (BT-549) was 14.5 µM (inactive) and the GI50 (CAKI-1) was 14.8 µM (inactive). For the same molecule, the GI50 (CCRF-CEM) was 2.43 µM (inactive), the GI50 (COLO 205) was 4.38 µM (inactive) and the GI50 (DU-145) was 12.8 µM (inactive). For the same molecule, the GI50 (EKVX) was 16.6 µM (inactive), the GI50 (HCC 2998) was 3.04 µM (inactive) and the GI50 (HCT-116) was 4.25 µM (inactive). For the same molecule, the GI50 (HCT-15) was 14.3 µM, the GI50 (HL-60) was 31.1 µM (inactive) and the GI50 (HOP-62) was 12.6 µM (inactive). For the same molecule, the GI50 (HOP-92) was 10.7 µM (inactive), the GI50 (HT-29) was 8.87 µM (inactive) and the GI50 (Hs-578T) was 24.3 µM (inactive). The GI50 (IGROV-1) was 13.9 µM (inactive), the GI50 (K562) was 2.98 µM (inactive) and the GI50 (KM12) was 10.9 µM (inactive). The GI50 (LOX IMVI) was 4.49 µM (inactive), the GI50 (M14) was 2.94 µM (inactive) and the GI50 (MCF7) was 11.5 µM (inactive). For the same molecule, the GI50 (MDA-MB-435) was 11.9 µM (inactive), the GI50 (MDA-N) was 11 µM (inactive) and the GI50 (MOLT-4) was 2.68 µM (inactive). The GI50 (Malme-3M) was 14.6 µM (inactive), the GI50 (NCI-H226) was 20.1 µM (inactive) and the GI50 (NCI-H23) was > 10 µM (inactive). For the same molecule, the GI50 (NCI-H460) was 13.1 µM (inactive), the GI50 (NCI-H522) was 12.8 µM (inactive) and the GI50 (NCI/ADR-RES) was 16.4 µM (inactive). The GI50 (OVCAR-3) was 8.18 µM (inactive), the GI50 (OVCAR-4) was 15.3 µM (inactive) and the GI50 (OVCAR-5) was 15.1 µM (inactive). For the same molecule, the GI50 (OVCAR-8) was 15.2 µM (inactive), the GI50 (PC-3) was 4.14 µM (inactive) and the GI50 (RPMI-8226) was 7.53 µM (inactive). The GI50 (RXF 393) was 9.29 µM (inactive), the GI50 (SF-268) was 11.5 µM (inactive) and the GI50 (SF-295) was 3.53 µM (inactive). For the same molecule, the GI50 (SF-539) was 11.7 µM (inactive), the GI50 (SK-MEL-28) was 12.7 µM (inactive) and the GI50 (SK-MEL-2) was 10.8 µM (inactive). The GI50 (SK-MEL-5) was 3.32 µM (inactive), the GI50 (SK-OV-3) was 13.9 µM (inactive) and the GI50 (SN12C) was 14.3 µM (inactive). The GI50 (SNB-19) was 15.6 µM (inactive), the GI50 (SNB-75) was 13.3 µM (inactive) and the GI50 (SR) was 7.16 µM (inactive). The GI50 (SW-620) was 5.89 µM (inactive), the GI50 (T47D) was 13.6 µM (inactive) and the GI50 (TK-10) was 15.7 µM (inactive). The GI50 (U-251) was 12.9 µM (inactive), the GI50 (UACC-257) was 14.3 µM (inactive) and the GI50 (UACC-62) was 11.9 µM (inactive). For the same molecule, the GI50 (UO-31) was 12.7 µM (inactive).
